Patent publication US9212196B2, “Hypophosphorous acid derivatives having antihyperalgic activity and biological applications thereof” (UNIVERSITE PARIS DESCARTES, priority 2011, dated 2015)
“Also recorded” adds a separate entry of the source.

Experiments:
[1] = test system: model of inflammation induced by carrageenan in C57BL6 mice; experiment: Von Frey test in carrageenan inflammation model in mice; assay type: in vivo, mouse
Protocol: FIG. 2 illustrates the effect of intrathecal administration of derivative 2 on the vocalization threshold to paw pressure in the carrageenan inflammatory pain model (effect of derivative 2 (0.5, 1, 5, 10 μg/rat, i.t.) on time-course of vocalization threshold to paw pressure). Morphine (10 μg/rat, i.t.) is used as a positive control.
Adult male Sprague-Dawley rats weighting 175-200 g were purchased from Charles River. C57/BL6 mice were from Elevage Janvier, and homozygous mGlu4 (−/−) and wild-type (+/+) littermates were generated from crosses between heterozygous animals. Animals were housed under controlled environmental conditions (22° C.; 55% humidity) and kept under a 12/12 h light/dark cycle, with food and water ad libitum for a week prior to start the experiments in order to acclimatize. Animal care and experiments were carried out in accordance with the Committee for Research and Ethical Issues of the IASP (Zimmermann M., 1983; Goudet C., 2008).
Mechanical allodynia and hyperalgesia were assessed using the von Frey hair filaments of 3 different bending forces (0.07 g, 0.6 g, 1.4 g). For each filament, 5 stimuli were applied with an interval of 3-5 s.

[2] = test system: CCI neuropathic pain model; experiment: Paw pressure test in CCI neuropathic pain model in rats; assay type: in vivo, rat
Protocol: After the induction period of the neuropathy or inflammation, various amounts of derivative 2 dissolved in serum have been injected in rats, (from 0.5 to 15 μg/rat, i.t. from 1 to 30 mg/kg, i.p.) on time-course of vocalization threshold to paw pressure. The results obtained on healthy animals are given on FIG. 1. They are expressed by the time course curves of means+/-SEM of vocalization threshold in grams (n=6-8 rats per group) (A) or by the area under the curve (B). Morphine (10 μg/rat, i.t.) is used as a positive control. […] FIG. 4 illustrates the effect of intrathecal administration of derivative 2 on the vocalization threshold to paw pressure in the CCI neuropathic pain model (effect of derivative 2 (1, 5, 10 μg/rat, i.t.) on time-course of vocalization threshold to paw pressure). Gabapentin (100 mg/kg, p.o.) is used as a positive control. […] The effect of intrathecal administration of derivative 2 (10 μg/rat, i.t.) on the vocalization threshold to paw pressure in the CCI neuropathic pain model after mGluR4 or mismatch ODN treatment is illustrated by FIG. 4. […] The animals were submitted to the paw pressure test previously described by Randall and Selitto (1957). Nociceptive thresholds, expressed in grams (g), were measured with a Ugo Basile analgesimeter (Apelex, tip diameter of the probe: 1 mm, weight: 30 g) by applying an increasing pressure to the right hind paw of rats until a squeak (vocalization threshold) was obtained (cut-off was 750 g except carrageenan treated animals for which the cut-off was 500 g). The treatments were done after the measurement of two consecutive stable vocalization threshold values and their effects were assessed 15, 30, 45, 60, 90, and 120 min after. Unilateral peripheral mononeuropathy was induced according to the method described by Bennett and Xie (1988). Briefly, after determining vocalization thresholds, rats were anesthetized with sodium pentobarbital (50 mg/kg i.p.) and four chromic gut (5-0) ligatures were tied loosely (with about 1-mm spacing) around the right common sciatic nerve. The nerve was constricted to a barely discernible degree, so that circulation through the epineurial vasculature was not interrupted. Only animals presenting a decrease ≧15% of the presurgery value of vocalization threshold were selected, i.e., 90% of ligated animals (presurgery value: 379±7 g, pre-drug value: 188±7 g). Intrathecal injections were performed, under isoflurane anesthesia (4% induction, 2% maintenance), as previously described (Mestre et al., 1994). Briefly, the anesthetized rat was held in one hand by the pelvic girdle and a 25-gauge X1-inch needle connected to a 25 μL Hamilton syringe was inserted into the subarachnoidal space between lumbar vertebrae L5 and L6, until a tail flick was elicited. The syringe was held in position for few seconds after the injection of a volume of 10 μL/rat. AS ODN was designed based on rat mGluR4 sequence in regions lacking known splice variants. […]. One ODN with scramble arrangement in the base composition compared to the 18-mer specific as was used as control for sequence-independent effects of ODN treatments. […] Pain scores were determined using standard methods in strict conformity with ethical standards (Zimmermann M., 1983) before ODN treatments and then on day 4 in the afternoon. […]

Q: Which results are given for `N[C@@H](CCP(=O)(O)C(O)c1ccc(OCC(=O)O)cc1)C(=O)O` (stereo partly drawn) [Derivative 2, [((3S)-3-Amino-3-carboxy)propyl][(4-(carboxymethoxy)phenyl)hydroxymethyl]phosphinic Acid]?
A: antihyperalgesic effect in mice lacking mGluR4 receptor versus wild-type littermates ([1]; 10 μg/mice i.t.): significantly decreased in mice lacking mGluR4 receptor; also recorded: profoundly impaired; mechanical hypersensitivity measured using Von Frey filaments ([1]; C57BL6 mice, i.t.): dose-dependently reduced the mechanical hypersensitivity; antihyperalgesic effect on vocalization threshold to paw pressure ([2]; CCI neuropathic pain, rats, 1-10 μg/rat i.t.): abolishes the excess of mechanical pain; antihyperalgesic effect after antisense oligonucleotides against mGlu4 ([2]; CCI neuropathic rats, 10 μg/rat i.t., versus saline or mismatch ODN): significantly reduced; mechanical antihyperalgesia after knockdown of spinal mGlu4 expression by antisense oligonucleotides ([2]; FIG. 7 legend, model not named): reduces mechanical antihyperalgesia; antihyperalgesic effect compared to gabapentine ([2]; neuropathy model, gabapentine 100 mg/kg per os as control): significantly higher than the one of gabapentine
